Measured values published in article PMC7912928, “Anti-Infective and Antiviral Activity of Valinomycin and Its Analogues from a Sea Cucumber-Associated Bacterium, Streptomyces sp. SV 21” (Marine Drugs, 2021).
In brackets after ≈: the same amount, converted by molar mass.

Legend:
[1] = test system: Mycobacterium smegmatis (ATCC 700084); assay: Antimicrobial microdilution assay (MIC); format: cell-based; details: microdilution in 96-well plates, seven 1:2 serial dilution steps, Mueller–Hinton bouillon, start OD548 0.1, 30 °C, 160 rpm overnight
From the text: (§1) The panel of test microorganisms consisted of the following multi drug-resistant (MDR) bacteria: Gram-negative Escherichia coli (DSM 1116) and Pseudomonas aeruginosa (PA16); Gram-positive Bacillus subtilis (DSM 10), Staphylococcus aureus (DSM 346), and Mycobacterium smegmatis (ATCC 7000048); yeasts Candida albicans (DSM 1665) and Rhodotorula glutinis (DSM 10134); and filamentous fungi Mucor hiemalis (DSM 2656). The positive controls were nystatin, oxytetracyclin, kanamycin, and gentamycin, with a concentration of 1 mg/mL. Compounds 1–4 were prepared in a concentration of 1 mg/mL MeOH. The activity of the samples was observed by using the microdilution technique in 96 well plates for tissue cultures (TPP). As much as 20 µL of the MeOH solution of each compound (1 mg/mL) was mixed with 300 µL of bacterial or fungal suspension, except for the positive controls where 2 µL of either oxytetracycline, kanamycin, and gentamycin in 300 µL of bacterial suspension was used. The samples were tested in seven 1:2 serial dilution steps (concentrations A to H) in 96-well plates. Bacteria were cultivated in Mueller–Hinton bouillon (Roth) and fungi/yeasts in MYC medium (1.0% phytone peptone, 1.0% glucose, and 1.19% HEPES, pH 7.0). Start OD600 was 0.01 for B. subtilis, E. coli, and S. aureus; start OD548 was 0.1 for M. hiemalis, C. albicans, R. glutinis, M. smegmatis, and P. aeruginosa. The test organisms were cultivated at 30 °C and 160 rpm overnight.

[2] = test system: Eschericia coli (DSM 1116); assay: Antimicrobial microdilution assay (MIC); format: cell-based, Escherichia coli; details: seven 1:2 serial dilution steps, Mueller–Hinton bouillon, start OD600 0.01, 30 °C, 160 rpm overnight; for MIC, Gram-Negative, Ec: microdilution in 96-well plates
From the text: as §1

[3] = test system: Mucor hiemalis (DSM 2656); format: cell-based; details: for MIC, Fungi, Mh: Mucor hiemalis (DSM 2656), microdilution in 96-well plates, seven 1:2 serial dilution steps, MYC medium pH 7.0, start OD548 0.1, 30 °C, 160 rpm overnight
From the text: as §1

[4] = test system: Rhodoturula glutinis (DSM 10134); format: cell-based; details: for MIC, Fungi, Rg: Rhodoturula glutinis (DSM 10134), microdilution in 96-well plates, seven 1:2 serial dilution steps, MYC medium pH 7.0, start OD548 0.1, 30 °C, 160 rpm overnight
From the text: as §1

[5] = test system: Hepatitis C Virus (HCV), Jc1-derived Renilla reporter viruses in Huh7.5 Fluc cells; assay: Inhibitory effects on Hepatitis C Virus (HCV) infectivity; format: cell-based; details: 10 µg/mL, Huh7.5 Fluc cells infected with Jc1-derived Renilla reporter viruses, Renilla luciferase read-out, compared to positive control EGCG, Figure 4A
Procedure: (§2) The anti-HCV assay was performed as mentioned in [5]. In brief, Huh7.5 cells stably expressing Firefly luciferase (Huh7.5 Fluc) were cultured in Dulbecco’s modified minimum essential medium (DMEM, Gibco, Thermo Fisher Scientific, Schwerte, Germany) and maintained in a 37 °C environment with 5% CO2 supply. Samples were added to the cells, and then the cells were infected with Jc1-derived Renilla reporter viruses. Compounds and the positive control (Epigallocatechin gallate, EGCG) were tested at a concentration of 10 µg/mL. Renilla and Firefly luciferase activities from the infected cells were measured on a Berthold Technologies Centro XS3 Microplate Luminometer (Bad Wildbad, Germany) as indicators of viral genome replication and cell viability, respectively.

[6] = test system: Huh7.5 cells; assay: Viability of Huh7.5 cells (Firefly luciferase) in the anti-HCV assay; format: cell-based; details: 10 µg/mL; Firefly luciferase read-out; compared to positive control EGCG; Figure 4B
Procedure: as §2

[7] = test system: Pseudomonas aeruginosa (PA14); assay: Antimicrobial microdilution assay (MIC); format: cell-based; details: microdilution in 96-well plates, seven 1:2 serial dilution steps, Mueller–Hinton bouillon, start OD548 0.1, 30 °C, 160 rpm overnight
From the text: as §1

[8] = test system: Bacillus subtilis (DSM 10); assay: microbe, parasite or virus in culture; format: cell-based; details: seven 1:2 serial dilution steps, Mueller–Hinton bouillon, start OD600 0.01, 30 °C, 160 rpm overnight
From the text: as §1

[9] = test system: Staphylococcus aureus (DSM 346); assay: microbe, parasite or virus in culture; format: cell-based; details: seven 1:2 serial dilution steps, Mueller–Hinton bouillon, start OD600 0.01, 30 °C, 160 rpm overnight; for MIC, Gram-Positive, Sa: microdilution in 96-well plates
From the text: as §1

[10] = test system: Candida albicans (DSM 1665); assay: Antimicrobial microdilution assay (MIC); format: cell-based; details: microdilution in 96-well plates, seven 1:2 serial dilution steps, MYC medium pH 7.0, start OD548 0.1, 30 °C, 160 rpm overnight
From the text: as §1

[11] = test system: Bacillus subtilis (Bs); details: pH values from 5.5 to 9.5; cited from earlier work
From the text: Previous studies had also shown antifungal activity of valinomycin against the plant pathoge ...

NC[C@H]1O[C@H](O[C@H]2[C@H](O)[C@@H](O[C@H]3O[C@H](CO)[C@@H](O)[C@H](N)[C@H]3O)[C@H](N)C[C@@H]2N)[C@H](O)[C@@H](O)[C@@H]1O [Kanamycin]
MIC, Gram-Positive, Ms [1]: 3.3 µg/mL (≈ 6.81 µM)

CC[C@H]1OC(=O)[C@H](C(C)C)NC(=O)[C@H](C)OC(=O)[C@@H](C(C)C)NC(=O)[C@@H](C(C)C)OC(=O)[C@H](C(C)C)NC(=O)[C@H](C)OC(=O)[C@@H](C(C)C)NC(=O)[C@@H](C(C)C)OC(=O)[C@H](C(C)C)NC(=O)[C@H](C)OC(=O)[C@@H](C(C)C)NC1=O [Streptodepsipeptide P11A (2), Streptodepsipeptide P11A]
MIC, Gram-Negative, Ec [2]: -
MIC, Fungi, Mh [3]: 8.3 µg/mL (≈ 7.56 µM)
MIC, Fungi, Rg [4]: 8.3 µg/mL (≈ 7.56 µM)
Activity against HCV infectivity (HCV-infected hepatoma cells), in words [5]: potent antiviral activity
Viability of Huh7.5 cells after exposure to the test compounds, in words [6]: lower than for the positive control

Gentamycin
MIC, Gram-Negative, Pa [7]: 0.4 µg/mL

CCC(C)[C@H]1OC(=O)[C@H](C(C)C)NC(=O)[C@H](C)OC(=O)[C@@H](C(C)C)NC(=O)[C@@H](C(C)C)OC(=O)[C@H](C(C)C)NC(=O)[C@H](C)OC(=O)[C@@H](C(C)C)NC(=O)[C@@H](C(C)C)OC(=O)[C@H](C(C)C)NC(=O)[C@H](C)OC(=O)[C@@H](C(C)C)NC1=O (stereo partly drawn) [Streptodepsipeptide SV21 (4), Streptodepsipeptide SV21]
MIC, Gram-Positive, Bs ([8]; microdilution in 96-well plates): 33.3 µg/mL (≈ 29.6 µM)
MIC, Gram-Positive, Sa [9]: 16.6 µg/mL (≈ 14.8 µM)
MIC, Gram-Negative, Ec [2]: -
MIC, Fungi, Mh [3]: 16.6 µg/mL (≈ 14.8 µM)
MIC, Fungi, Rg [4]: 16.6 µg/mL (≈ 14.8 µM)
Activity against HCV infectivity (HCV-infected hepatoma cells), in words ([5]; listed as 4): potent antiviral activity
Viability of Huh7.5 cells after exposure to the test compounds, in words [6]: lower than for the positive control

CC(C)[C@@H]1NC(=O)[C@H](C)OC(=O)[C@@H](C(C)C)NC(=O)[C@@H](C(C)C)OC(=O)[C@H](C(C)C)NC(=O)[C@H](C)OC(=O)[C@@H](C(C)C)NC(=O)[C@@H](C(C)C)OC(=O)[C@H](C(C)C)NC(=O)[C@H](C)OC(=O)[C@@H](C(C)C)NC(=O)[C@H](C)OC1=O [Streptodepsipeptide P11B (1), Streptodepsipeptide P11B]
MIC, Gram-Negative, Ec [2]: -
MIC, Fungi, Mh [3]: 16.6 µg/mL (≈ 15.3 µM)
MIC, Fungi, Rg [4]: 33.3 µg/mL (≈ 30.7 µM)
Activity against HCV infectivity (HCV-infected hepatoma cells), in words [5]: significantly less affected the HCV

C[C@@H]1[C@H](O)[C@@H](C)/C=C/C=C/CC/C=C/C=C/C=C/C=C/C(O[C@H]2O[C@H](C)[C@@H](O)[C@H](N)[C@@H]2O)CC2O[C@](O)(CC(O)C(O)CCC(O)CC(O)CC(O)CC(=O)O[C@H]1C)CC(O)C2C(=O)O (stereo partly drawn) [Nystatin, reference compound]
MIC, Fungi, Ca [10]: 33.3 µg/mL (≈ 36 µM)
MIC, Fungi, Mh [3]: 16.6 µg/mL (≈ 17.9 µM)
MIC, Fungi, Rg [4]: 4.2 µg/mL (≈ 4.54 µM)

CN(C)[C@@H]1C(O)=C(C(N)=O)C(=O)[C@@]2(O)C(O)=C3C(=O)c4c(O)cccc4[C@@](C)(O)[C@H]3[C@H](O)[C@@H]12 [Oxytetracycline, reference compound]
MIC ([8]; DSM10, microdilution in 96-well plates, read-out: MIC, Gram-Positive, Bs): 8.3 µg/mL (≈ 18 µM)
MIC ([9]; DSM346, microdilution in 96-well plates, read-out: MIC, Gram-Positive, Sa): 0.2 µg/mL (≈ 0.434 µM)
MIC ([2]; Escherichia coli, DSM1116, microdilution in 96-well plates, read-out: MIC, Gram-Negative, Ec): 1.7 µg/mL (≈ 3.69 µM)

CC(C)[C@@H]1NC(=O)[C@H](C)OC(=O)[C@@H](C(C)C)NC(=O)[C@@H](C(C)C)OC(=O)[C@H](C(C)C)NC(=O)[C@H](C)OC(=O)[C@@H](C(C)C)NC(=O)[C@@H](C(C)C)OC(=O)[C@H](C(C)C)NC(=O)[C@H](C)OC(=O)[C@@H](C(C)C)NC(=O)[C@@H](C(C)C)OC1=O [Valinomycin (3), Valinomycin]
MIC, Gram-Positive, Sa [9]: 4.2 µg/mL (≈ 3.78 µM)
MIC, Gram-Negative, Ec [2]: -
MIC, Fungi, Mh [3]: 2.1 µg/mL (≈ 1.89 µM)
Antifungal strength relative to nystatin against Mh ([3]; comparison of MIC values, Mucor hiemalis): eight times stronger than nystatin
MIC, Fungi, Rg [4]: 4.2 µg/mL (≈ 3.78 µM)
Antifungal strength relative to nystatin against Rg ([4]; comparison of MIC values, Rg): as strong as nystatin
Activity against HCV infectivity (HCV-infected hepatoma cells), in words [5]: potent antiviral activity
Viability of Huh7.5 cells after exposure to the test compounds, in words [6]: lower than for the positive control
Antibacterial activity against Bs as a function of pH, in words [11]: increase in antibacterial activity against Bs at higher pH values
